Source: US9157062B2, “Compositions and methods for promoting the generation of PDX1+ pancreatic cells” (President and Fellows of Harvard College, priority 2008, dated 2015)

How the values were obtained:
Format in all cases: cell-based, human
HUES8-derived population [1] = assay: In vitro differentiation into pancreatic lineages with bFGF and nicotinamide
Method: For growth factor-induced differentiation, the ILV-treated populations were cultured in DMEM/F12 supplemented with 1×N2 (Invitrogen), 2 mg/ml albumin fraction V (Invitrogen), and 10 ng/ml bFGF (Invitrogen) for the first 4 days. 10 mM nicotinamide (Sigma) was then added and maintained for additional 8 days, changing the media every 3 days.
(§1) Cells were fixed with 10% formalin solution (Sigma) for 20 min at room temperature. Immunostaining was carried out with standard protocols. The following primary antibodies were used: goat anti-Pdx1 (1:500; R&D system); rabbit anti-FOXA2 (1:500; Upstate); rabbit anti-HNF6 (1:200; Santa Cruz Biotech); guinea pig anti-insulin (1:1000; Dako); rabbit anti-c-peptide (1:500; Linco); rabbit anti-amylase (1:200, Sigma); goat anti-HNF1β (1:100, Santa Cruz Biotech); and biotinylated DBA (1:400; Vector Lab). Alexa-488-, Alexa-555, and Alexa-647-conjugated donkey antibodies against mouse, rabbit, guinea pig and goat, and Pacific Blue conjugate-streptavidin (Invitrogen) were used at 1:300 dilution.
In mouse embryonic development, Pdx1^+ pancreatic progenitors contribute to exocrine, endocrine and duct cells (Gu et al., 2003). The developmental potential of Pdx1^+ cells produced by ILV treatment was tested in two assays. First, following published protocols for in vitro differentiation (Jiang et al., 2007), cells were cultured with bFGF and nicotinamide for an additional 12 days. Using this in vitro differentiation assay, four different induced cell types were tested, including HUES8-derived population before ILV treatment (no treatment), the HUES8-derived population after 4 day treatment with DMSO, 300 nM ILV or 300 nM ILV+50 ng/ml FGF10, respectively. After 12 days culture with bFGF and nicotinamide, these four populations of cells were stained with the antibodies against insulin, c-peptide, amylase or DBA (a duct marker).

[2] = test system: ERK1/2 phosphorylation at Thr-202/Tyr-204; assay: Western blot of ERK1/2 phosphorylation; conditions: 300 nM ILV, 1 hour, compared to DMSO-treated control
Method: Cells were lysed in 1×RIPA lysis buffer (Upstate Biotechnology) with 1% protease inhibitor mixture (Sigma)/1% phosphatase inhibitor mixture (Sigma)/1% phosphatase inhibitor mixture II (Sigma). Proteins were separated by 4-20% Tris-Glycine SDS/PAGE (Biorad) under denaturing conditions and transferred to a nitrocellulose membrane. After blocking with 5% nonfat milk in DPBS, the membrane was incubated with primary antibodies against phospho-ERK1/2 (Thr-202/Tyr-204) (1:2,000, Sigma) and ERK1/2 (1:1,000, Cell Signaling) overnight at 4° C. The membrane was then washed, incubated with anti-mouse/rabbit peroxidase-conjugated affinity-purified secondary antibody (1:1000, Cell Signaling) at room temperature for 1 hour, and developed by SuperSignal chemiluminescence (Pierce).
Experiments were performed to monitor downstream signaling by PKC. Since ERK signaling has been reported to be regulated by PKC (Ueda et al., 1996), the activity of ERK signaling was examined with Western blotting to detect the phosphorylation of ERK1/2 at Thr-202/Tyr-204. After 1 hour treatment with 300 nM ILV, the phosphorylation of ERK1/2 increased compared to the DMSO-treated control (FIG. 8a). In addition, MEK/ERK inhibitors, PD098059 or U0126, both block ILV's effect. […]

HUES8-derived population [3] = assay: Illumina microarray of markers expressed in non-pancreatic tissues; conditions: 300 nM ILV, 4 days
Method: cRNA samples were prepared with an Illumina TotalPrep RNA Amplification Kit (Ambion). Data was acquired with an Illumina beadstation 500 (Illumina) and analyzed with beadstudio (Illumina).
To further characterize the cells induced by ILV, beyond Pdx1^+ expression, multiple pancreatic lineage markers were examined by immunocytochemistry and qRT-PCR. More than 96% of the Pdx1^+ cells following ILV treatment show significant expression of other pancreatic progenitor markers, including FOXA2 and HNF6 (FIG. 4a). After ILV treatment, Pdx1, HNF6, Ptfla, Sox9, FOXA2 mRNAs level increase (FIG. 4b).

[4] = test system: HUES8-derived population (Pdx1+ cells); assay: Pdx1 antibody staining of treated HUES8-derived population; conditions: HUES8-derived population, 4 days; 300 nM ILV and/or 50 ng/ml FGF10
Method: To generate a starting population, HUES cells were cultured on MEF feeder cells until 80-90% confluent, then treated with 25 ng/ml Wnt3a (R&D systems)+100 ng/ml Activin A (R&D systems) in advanced RPMI (A-RPMI, Invitrogen) supplemented with 1×L-Glu and 1×PS for 1 day, and then 100 ng/ml Activin A in A-RPMI supplemented with 1×L-Glu, 1×PS and 0.2% FBS (Invitrogen). Two days later, the media was changed to 50 ng/ml FGF10 (R&D systems)+0.25 μM KAAD-CYC (Calbiochem) in A-RPMI supplemented with 1×L-Glu, 1×PS and 2% FBS and maintained for additional 2 days. Cells were then transferred to 50 ng/ml FGF10+0.25 μM KAAD-CYC+2 μM RA (Sigma) in DMEM supplemented with 1×L-Glu, 1×PS, 1×B27 (Invitrogen) and cultured for an additional 4 days. ILV was obtained from Axxora, KAAD-CYC, TPB, PMA, BISI, Gö 6983, U0126 and PD98059 were obtained from Calbiochem and RA were obtained from Sigma.
as §1
To determine whether PKC signaling is being activated in HUES-derived cells, HUES8-derived definitive endoderm population was treated with two PKC agonists, TPB ((2S,5S)-(E,E)-8-(5-(4-(trifluoromethyl)phenyl)-2,4-pentadienoylamino)benzolactam) and PMA (phorbol-12-myristate-13-acetate), in the absence of ILV. […] Furthermore, HUES8-derived population was treated with two PKC antagonists, BISI (Bisindolylmaleimide I) and Gö 6983, in the presence of ILV.
Experiments were performed to monitor downstream signaling by PKC. Since ERK signaling has been reported to be regulated by PKC (Ueda et al., 1996), the activity of ERK signaling was examined with Western blotting to detect the phosphorylation of ERK1/2 at Thr-202/Tyr-204.

[5] = 4 day treatment (300 nM ILV, 50 ng/ml FGF10), then 12 days bFGF and nicotinamide

(−)-Indolactam V [ILV]
DBA+ duct cells (HUES8-derived population [1]; [5]): 3.6±1.3% | amylase+ exocrine cells (HUES8-derived population [1]; [5]): 22.7±5.3% | insulin+ cells (HUES8-derived population [1]; [5]): 0.5±0.2% | contribution to somatostatin+ cells (HUES8-derived population [1]; compared to no treatment or DMSO, immunostaining and qRT-PCR): stronger ability to contribute | phosphorylation of ERK1/2 [2]: increased | markers expressed in non-pancreatic tissues or organs (Sox7, Cdx2, Ces2, FABP2, AFP, albumin, BARX1, Troponin T, Sox2) (HUES8-derived population [3]): either decrease or do not significantly change | percentage of cells stained by Pdx1 antibody [4]: 26.9±2.8%
